In patent US20260256748A1, “LANIFIBRANOR FOR USE IN THE TREATMENT OF SPLANCHNIC VASODILATATION IN A PATIENT WITH A LIVER CONDITION” (INVENTIVA, priority 2023, published 2026):

Assays:
Assay type in all cases: in vivo, mouse
[1] = tested on: Swiss mice with partial portal vein ligation (PPVL); test: Hemodynamic parameters (flow superior mesenteric artery) in partial portal vein ligation (PPVL) model; details: lanifibranor 30 mg/kg daily for 7 days, started one week after ligation
Procedure: (§1) Experiments were carried out using Swiss mice (7 to 10 animals per groups). Portal hypertension was induced using the partial portal vein ligation (PPVL) model. A midline abdominal incision was performed and the portal vein was separated from the surrounding tissue. A ligature (silk cut 5-0) was tied around both portal vein and adjacent 27-gauge blunt-tipped needle. Subsequent removal of the needle yielded a calibrated stenosis of the portal vein. One week after the ligation mice received daily lanifibranor (10 mg/kg or 30 mg/kg) or vehicle in a therapeutic setting for 7 days. The effect of lanifibranor on angiogenesis was evaluated by analyzing hepatic and systemic hemodynamics, serum, hepatic and mesenteric histology. The vascular corrosion casting is a technic allowing the capture of the 3D structure of the vascular bed. Briefly the vascular corrosion casts were obtained by inserting, after euthanasia, a 26-gauge catheter into the ileocolic vein, which was then perfused with Batson n°17 solution. The soft tissue was dissolved overnight in a 25% potassium hydroxide solution. The vascular corrosion casts of the venous mesenteric vasculature were analyzed using μCT.

[2] = tested on: Swiss mice with partial portal vein ligation (PPVL); test: Spleen weight in partial portal vein ligation (PPVL) model; details: for spleen weight: control 0.38, PPVL 0.63; for reduction of spleen weight: control 0.38, PPVL 0.63% body weight
Procedure: as §1

[3] = tested on: Swiss mice with partial portal vein ligation (PPVL); test: Corrosion vascular casting of venous mesenteric vasculature analyzed by μCT in PPVL model; details: for mesenteric vascular wall thickness: control 20.31, PPVL 37.53
Procedure: as §1

[4] = tested on: Swiss mice with partial portal vein ligation (PPVL); test: Immunohistochemistry staining for CD34 (angiogenesis and vascular expansion) in mesenteric area in PPVL model
Procedure: as §1, with “μCT. Evaluation of the vasculature system with an immunohistochemistry staining for CD34 allow to highlight the increase of blood vessels in the mesenteric area in PPVL animals. […]” for “μCT.”

O=C(O)CCCc1cc2cc(Cl)ccc2n1S(=O)(=O)c1ccc2ncsc2c1 [lanifibranor, 4-[1-(1,3-benzothiazol-6-ylsulfonyl)-5-chloroindol-2-yl]butanoic acid]
reduction of flow superior mesenteric artery [1]: 51.7%
spleen weight ([2]; 10 mg/kg daily for 7 days): 0.57 % body weight
reduction of spleen weight ([2]; 10 mg/kg daily for 7 days): 23.7%
spleen weight ([2]; 30 mg/kg daily for 7 days): 0.49 % body weight
reduction of spleen weight ([2]; 30 mg/kg daily for 7 days): 56.1%
reduction of mesenteric vascular wall thickness ([3]; 10 mg/kg daily for 7 days): 49.8%
mesenteric vascular wall thickness ([3]; 10 mg/kg daily for 7 days): 28.9 µm
reduction of mesenteric vascular wall thickness ([3]; 30 mg/kg daily for 7 days): 52.3%
mesenteric vascular wall thickness ([3]; 30 mg/kg daily for 7 days): 28.5 µm
expansion of the venous mesenteric vasculature ([3]; lanifibranor treatment, data not shown): reduced
reduction of staining for CD34 ([4]; 10 mg/kg daily for 7 days): 69.5%
reduction of staining for CD34 ([4]; 30 mg/kg daily for 7 days): 135.8%
